Like-named read-outs stand apart in the source and are kept apart here. *1 amine or outer side, *2 acyl side, *3 side chain or, on linkers, in order; H or OH if unused. Where a SMILES comes first, the peptide text is derived from it. [ ]: non-standard residue; d: D form. X1 = O=C(C[C@@H](N[*:1])c1ccc(Cl)cc1)[*:2]; β3hPhg = O=C(C[C@@H](N[*:1])c1ccccc1)[*:2]; Nle = CCCC[C@H](N)C(=O)O
What was measured:
[1] = target: T1, hBRS-3 (Homo sapiens, UniProt P32247); settings: for affinities from binding studies for the hBRS-3 receptor, range over 3 cell lines: 3 hBRS-3 cell lines (NC-N417, Balb, H1299)
[2] = target: T1, hBRS-3; settings: binding; hBRS-3 containing cells (H1299, Balb; Tables 2 and 3)
[3] = target: T1, hBRS-3; settings: binding affinities
[4] = target: T2, hGRPR (Homo sapiens, UniProt P30550); settings: binding, HuTu-80 cells, native hGRPR
[5] = target: T3, hNMBR (Homo sapiens, UniProt P28336); settings: binding; hNMBR/H1299 and hNMBR/Balb cells
[6] = target: T1, hBRS-3; settings: for agonist efficacy for [3H]IP generation (full/partial agonist): each of the hBRS-3 containing cells, concentrations up to 10,000 nM; for fold less potent than peptide #1 at activating PLC: range over three hBRS-3 containing cells
[7] = target: T1, hBRS-3; experiment: biochemical; settings: IC50 (nM) hBRS-3/N417, half-maximal inhibition of binding; 50 pM radioligand, 22 °C, 60 min
[8] = target: T3, hNMBR; experiment: biochemical
[9] = target: T3, hNMBR; experiment: biochemical; settings: IC50 (nM) hNMBR/H1299, half-maximal inhibition of binding
[10] = target: T2, hGRPR; experiment: Stimulation of [3H]IP generation; settings: for fold less potent than peptide #1 at activating PLC: hGRPR containing HuTu-80 and Balb cells
[11] = target: T2, hGRPR; experiment: Stimulation of [3H]IP generation
[12] = target: T3, hNMBR; experiment: Stimulation of [3H]IP generation
[13] = target: T3, hNMBR; experiment: Stimulation of [3H]IP generation; settings: for fold less potent than peptide #1 at activating PLC: hNMBR containing H1299 and Balb cells

T2 sequence (P30550 whole entry): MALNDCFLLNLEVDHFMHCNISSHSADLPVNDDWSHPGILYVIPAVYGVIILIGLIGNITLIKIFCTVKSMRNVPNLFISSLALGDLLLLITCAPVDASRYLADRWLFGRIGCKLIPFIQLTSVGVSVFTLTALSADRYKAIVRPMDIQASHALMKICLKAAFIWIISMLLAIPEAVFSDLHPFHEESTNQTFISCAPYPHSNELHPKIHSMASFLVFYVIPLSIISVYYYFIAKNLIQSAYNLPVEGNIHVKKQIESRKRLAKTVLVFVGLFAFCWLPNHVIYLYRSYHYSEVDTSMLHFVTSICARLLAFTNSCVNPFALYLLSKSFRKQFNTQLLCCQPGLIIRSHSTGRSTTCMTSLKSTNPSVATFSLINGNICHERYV
T3 sequence (P28336 whole entry): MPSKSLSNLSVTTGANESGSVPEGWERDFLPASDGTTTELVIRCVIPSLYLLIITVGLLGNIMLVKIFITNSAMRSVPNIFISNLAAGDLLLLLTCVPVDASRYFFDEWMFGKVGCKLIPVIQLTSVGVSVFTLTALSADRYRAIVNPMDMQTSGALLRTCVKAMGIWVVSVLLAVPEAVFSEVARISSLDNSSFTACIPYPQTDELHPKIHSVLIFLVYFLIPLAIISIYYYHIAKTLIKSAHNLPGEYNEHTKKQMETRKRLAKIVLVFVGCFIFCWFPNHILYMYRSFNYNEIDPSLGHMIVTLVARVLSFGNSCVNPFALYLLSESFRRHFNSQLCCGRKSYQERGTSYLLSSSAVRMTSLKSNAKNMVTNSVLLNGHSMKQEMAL
T1 sequence (P32247 whole entry): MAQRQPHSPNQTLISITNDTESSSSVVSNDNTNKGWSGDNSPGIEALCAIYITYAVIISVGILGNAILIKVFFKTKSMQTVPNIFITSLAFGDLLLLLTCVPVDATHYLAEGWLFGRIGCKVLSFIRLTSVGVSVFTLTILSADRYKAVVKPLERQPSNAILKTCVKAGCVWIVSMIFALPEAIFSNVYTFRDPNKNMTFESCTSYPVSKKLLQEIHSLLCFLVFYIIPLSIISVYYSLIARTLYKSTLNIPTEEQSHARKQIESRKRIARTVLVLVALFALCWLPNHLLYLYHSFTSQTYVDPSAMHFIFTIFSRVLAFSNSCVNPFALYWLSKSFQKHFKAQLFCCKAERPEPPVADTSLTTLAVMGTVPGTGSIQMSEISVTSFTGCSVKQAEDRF

| Structure (SMILES) | affinities from binding studies for the hBRS-3 receptor, range over 3 cell lines [1] | fold lower affinity than peptide #1, range over hBRS-3 cell lines [2] | fold lower affinity than GRP or peptide #1 [4] [fold] | fold lower affinity than NMB (and peptide #1) [5] | agonist efficacy for [3H]IP generation (full/partial agonist) [6] | fold less potent than peptide #1 at activating PLC [6] | fold less potent than peptide #1 at activating PLC [10] | fold less potent than peptide #1 at activating PLC [13] [fold] | other results |
| --- | --- | --- | --- | --- | --- | --- | --- | --- | --- |
| CCCC[C@H](NC(=O)[C@H](Cc1ccccc1)NC(=O)[C@H](Cc1c[nH]cn1)NC(=O)C[C@@H](NC(=O)[C@@H](NC(=O)[C@H](C)NC(=O)[C@H](Cc1c[nH]c2ccccc12)NC(=O)[C@H](CCC(N)=O)NC(=O)[C@H](N)Cc1ccc(O)cc1)C(C)C)c1ccccc1)C(N)=O [Peptide 2, [DTyr^6, (R)-Apa^11, Phe^13, Nle^14]Bn(6-14)] (H-[dY]QWAV[β3hPhg]HF[Nle]-NH2) | nM affinities | 4–49 fold | 475 | 200–1100 fold | none functioning as a partial agonist | 4–14 fold | 10–25 fold | > 250 | selectivity for hBRS-3 in NCI-N417 cell over hGRPR natively expressed in Hutu cells ([1]; binding affinities): 13 fold; selectivity for hBRS-3 natively expressed in NCI-N417 cells than hNMBR expressed in NCI-H1299 cells ([1]; binding affinities): 15 fold; fold lower affinity than the universal ligand, peptide #1 ([1]; binding, native hBRS-3 in NCI-N417 cells): 3 fold; selectivity for hBRS-3 over hGRPR in the different cells based on binding affinities ([1]; range over cells): 13–32 fold; selectivity for hBRS-3 over the hNMBR based on binding affinities ([1]; range over cells): 15 to 46 fold; selectivity for hBRS-3 expressed in Balb cells over hGRPR in the same cells [3]: 32 fold; selectivity for hBRS-3 expressed in Balb cells than hNMBR in the same cells [3]: 47 fold; selectivity (PLC potency) for hBRS-3 cells over hGRPR containing cells ([6]; Tables 2-4): 10 to 26 fold; IC50 [7]: 4.3 ± 0.2 nM; IC50 [8]: 158 ± 8 nM; IC50 [9]: 66.1 ± 3.4 nM; EC50 [10]: 318 ± 25 nM; EC50 [11]: 58 ± 2 nM; EC50 [12]: 38 ± 1.2 nM; EC50 [13]: 195 ± 11 nM |
| CCCC[C@H](NC(=O)[C@H](Cc1ccccc1)NC(=O)[C@H](Cc1c[nH]cn1)NC(=O)C[C@@H](NC(=O)[C@@H](NC(=O)[C@H](C)NC(=O)[C@H](Cc1c[nH]c2ccccc12)NC(=O)[C@H](CCC(N)=O)NC(=O)[C@H](N)Cc1ccc(O)cc1)C(C)C)c1ccc(Cl)cc1)C(N)=O [Peptide 3, [DTyr^6, (R)-Apa^11-4Cl, Phe^13, Nle^14]Bn(6-14)] (H-[dY]QWAV[X1]HF[Nle]-NH2) | nM affinities | 2.5–17 fold | 750 | 745–5900 fold | none functioning as a partial agonist | 3.3–10 fold | 123–270 fold | > 1000 | – |

Reference: paper PMC2905478 (Peptides, 2010)
